Measurements taken from US20240182487A1, “MACROCYCLES AND THEIR USE” (BLOSSOMHILL THERAPEUTICS, INC., priority 2020, published 2024).
pIC50: −log10 of the molar value.

Legend:
Type in all cases: biochemical
[1] = target: EGFR Δ746-750/T790M mutant (Homo sapiens (Human), UniProt P00533, DEL746-750/T790M); experiment: HotSpot radiometric kinase assay, EGFR Δ746-750/T790M; conditions: radiometric filter-binding, 10 μM ATP
Procedure: (§1) Biochemical Assays for Inhibition of Wild-Type and Mutant EGFRs
(§2) The inhibitory activities against EGFR WT, EGFR Δ752-759 mutant, EGFR Δ746-750/T790M mutant, EGFR Δ746-750/C797S mutant, EGFR Δ746-750/T790M/C797S mutant. […] Briefly, specific kinase/substrate pairs along with required cofactors were prepared in reaction buffer; 20 mM Hepes pH 7.5, 10 mM MgCl2, 1 mM EGTA, 0.02% Brij35, 0.02 mg/ml BSA, 0.1 mM Na3VO4, 2 mM DTT, 1% DMSO. Compounds were delivered into the reaction, followed ˜20 minutes later by addition of a mixture of ATP (Sigma, St. Louis MO) and ^33P ATP (Perkin Elmer, Waltham MA) to a final concentration of 10 μM. Reactions were carried out at room temperature for 120 min, followed by spotting of the reactions onto P81 ion exchange filter paper (Whatman Inc., Piscataway, NJ). Unbound phosphate was removed by extensive washing of filters in 0.75% phosphoric acid. […] IC50 values and curve fits were obtained using Prism (GraphPad Software).

EGFR L858R/T790M mutant = EGFR L858R/T790M mutant (Homo sapiens (Human), UniProt P00533, L858R/T790M); experiment: HotSpot radiometric kinase assay, EGFR L858R/T790M; conditions: radiometric filter-binding, 10 μM ATP; read-out: EGFR (L858R/T790M)_IC50
EGFR WT = EGFR WT (Homo sapiens (Human), UniProt P00533); experiment: HotSpot radiometric kinase assay, EGFR WT; conditions: radiometric filter-binding, 10 μM ATP
Sequence of EGFR WT (P00533 25-1210): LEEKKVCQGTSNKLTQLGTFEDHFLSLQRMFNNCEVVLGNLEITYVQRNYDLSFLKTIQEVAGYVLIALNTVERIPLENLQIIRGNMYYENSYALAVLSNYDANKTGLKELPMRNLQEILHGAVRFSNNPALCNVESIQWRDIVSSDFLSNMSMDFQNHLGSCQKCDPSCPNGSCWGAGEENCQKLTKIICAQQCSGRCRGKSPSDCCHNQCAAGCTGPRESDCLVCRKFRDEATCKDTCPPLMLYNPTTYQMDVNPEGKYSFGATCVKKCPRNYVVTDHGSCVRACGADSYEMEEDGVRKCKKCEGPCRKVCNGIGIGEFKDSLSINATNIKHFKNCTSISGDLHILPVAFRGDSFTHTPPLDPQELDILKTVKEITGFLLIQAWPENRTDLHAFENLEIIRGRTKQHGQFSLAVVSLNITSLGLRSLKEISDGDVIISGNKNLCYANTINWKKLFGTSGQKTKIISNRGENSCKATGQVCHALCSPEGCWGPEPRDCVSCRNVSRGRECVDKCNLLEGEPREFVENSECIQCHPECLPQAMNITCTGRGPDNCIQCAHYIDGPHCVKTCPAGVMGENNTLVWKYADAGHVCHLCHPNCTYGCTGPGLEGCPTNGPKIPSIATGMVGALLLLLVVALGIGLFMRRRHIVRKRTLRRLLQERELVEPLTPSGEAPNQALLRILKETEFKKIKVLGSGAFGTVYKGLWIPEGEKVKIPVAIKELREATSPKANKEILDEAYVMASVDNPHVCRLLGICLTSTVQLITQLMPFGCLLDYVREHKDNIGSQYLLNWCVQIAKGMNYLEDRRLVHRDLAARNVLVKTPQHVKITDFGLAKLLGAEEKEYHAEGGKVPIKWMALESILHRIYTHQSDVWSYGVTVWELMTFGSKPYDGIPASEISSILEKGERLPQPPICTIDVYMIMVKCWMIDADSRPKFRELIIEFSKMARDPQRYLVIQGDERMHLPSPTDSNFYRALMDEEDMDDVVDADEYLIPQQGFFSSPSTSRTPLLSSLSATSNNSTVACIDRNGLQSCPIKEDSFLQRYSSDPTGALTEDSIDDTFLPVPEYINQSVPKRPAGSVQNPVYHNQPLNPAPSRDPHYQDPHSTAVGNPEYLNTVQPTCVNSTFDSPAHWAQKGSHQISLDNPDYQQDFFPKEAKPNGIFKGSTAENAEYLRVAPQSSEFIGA
Procedure: as §1, §2

[2] = target: EGFR Δ746-750/C797S mutant (Homo sapiens (Human), UniProt P00533, C797S/DEL746-750); experiment: HotSpot radiometric kinase assay, EGFR Δ746-750/C797S; conditions: radiometric filter-binding, 10 μM ATP
Sequence of EGFR Δ746-750/C797S mutant (P00533 other isoform, or with tags, fused parts or gaps C797S/del 1-668/del 746-750 limits assumed): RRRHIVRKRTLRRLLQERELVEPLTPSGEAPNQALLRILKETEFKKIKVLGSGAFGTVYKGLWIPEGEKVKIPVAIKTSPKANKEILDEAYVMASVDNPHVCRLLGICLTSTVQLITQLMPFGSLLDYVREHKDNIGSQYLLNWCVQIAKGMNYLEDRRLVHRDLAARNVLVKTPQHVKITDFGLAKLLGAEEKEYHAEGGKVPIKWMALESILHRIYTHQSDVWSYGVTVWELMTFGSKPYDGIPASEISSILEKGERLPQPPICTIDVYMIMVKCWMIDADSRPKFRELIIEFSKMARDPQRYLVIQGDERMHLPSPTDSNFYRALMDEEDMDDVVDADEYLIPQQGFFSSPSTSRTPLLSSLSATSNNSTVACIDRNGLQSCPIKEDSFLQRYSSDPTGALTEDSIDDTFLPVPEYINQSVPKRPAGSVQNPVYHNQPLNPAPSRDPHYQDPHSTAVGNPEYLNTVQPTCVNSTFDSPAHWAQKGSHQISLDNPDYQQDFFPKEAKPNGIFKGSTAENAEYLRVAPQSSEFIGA
Procedure: as §1, §2

EGFR (Δ746-750) = EGFR (Δ746-750) (Homo sapiens (Human), UniProt P00533, DEL746-750); experiment: HotSpot radiometric kinase assay, EGFR Δ746-750; conditions: radiometric filter-binding, 10 μM ATP
Sequence of EGFR (Δ746-750) (P00533 other isoform, or with tags, fused parts or gaps del 1-668/del 746-750 limits assumed): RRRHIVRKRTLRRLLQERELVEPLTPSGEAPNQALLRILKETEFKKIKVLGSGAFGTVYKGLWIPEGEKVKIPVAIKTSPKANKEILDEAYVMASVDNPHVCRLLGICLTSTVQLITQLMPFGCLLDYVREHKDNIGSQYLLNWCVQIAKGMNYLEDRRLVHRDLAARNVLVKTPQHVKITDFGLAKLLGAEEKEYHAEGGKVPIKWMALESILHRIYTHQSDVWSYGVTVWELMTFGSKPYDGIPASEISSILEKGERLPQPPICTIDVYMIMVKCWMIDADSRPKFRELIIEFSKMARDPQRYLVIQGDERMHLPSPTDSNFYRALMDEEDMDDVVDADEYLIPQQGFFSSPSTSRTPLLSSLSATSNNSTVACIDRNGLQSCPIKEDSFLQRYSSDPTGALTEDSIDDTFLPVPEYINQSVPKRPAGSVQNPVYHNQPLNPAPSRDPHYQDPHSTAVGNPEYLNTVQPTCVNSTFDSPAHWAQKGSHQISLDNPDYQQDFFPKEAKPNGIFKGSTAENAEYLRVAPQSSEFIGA

[3] = target: EGFR L858R/T790M/C797S mutant (Homo sapiens (Human), UniProt P00533, C797S/L858R/T790M); experiment: HotSpot radiometric kinase assay, EGFR L858R/T790M/C797S; conditions: radiometric filter-binding, 10 μM ATP; read-out: EGFR (L858R/T790M/C797S/)_IC50
EGFR L858R/C797S mutant = EGFR L858R/C797S mutant (Homo sapiens (Human), UniProt P00533, C797S/L858R); experiment: HotSpot radiometric kinase assay, EGFR L858R/C797S; conditions: radiometric filter-binding, 10 μM ATP
EGFR L858R mutant = EGFR L858R mutant (Homo sapiens (Human), UniProt P00533, L858R); experiment: HotSpot radiometric kinase assay, EGFR L858R; conditions: radiometric filter-binding, 10 μM ATP
Sequence of EGFR L858R mutant (P00533 25-1210 L858R): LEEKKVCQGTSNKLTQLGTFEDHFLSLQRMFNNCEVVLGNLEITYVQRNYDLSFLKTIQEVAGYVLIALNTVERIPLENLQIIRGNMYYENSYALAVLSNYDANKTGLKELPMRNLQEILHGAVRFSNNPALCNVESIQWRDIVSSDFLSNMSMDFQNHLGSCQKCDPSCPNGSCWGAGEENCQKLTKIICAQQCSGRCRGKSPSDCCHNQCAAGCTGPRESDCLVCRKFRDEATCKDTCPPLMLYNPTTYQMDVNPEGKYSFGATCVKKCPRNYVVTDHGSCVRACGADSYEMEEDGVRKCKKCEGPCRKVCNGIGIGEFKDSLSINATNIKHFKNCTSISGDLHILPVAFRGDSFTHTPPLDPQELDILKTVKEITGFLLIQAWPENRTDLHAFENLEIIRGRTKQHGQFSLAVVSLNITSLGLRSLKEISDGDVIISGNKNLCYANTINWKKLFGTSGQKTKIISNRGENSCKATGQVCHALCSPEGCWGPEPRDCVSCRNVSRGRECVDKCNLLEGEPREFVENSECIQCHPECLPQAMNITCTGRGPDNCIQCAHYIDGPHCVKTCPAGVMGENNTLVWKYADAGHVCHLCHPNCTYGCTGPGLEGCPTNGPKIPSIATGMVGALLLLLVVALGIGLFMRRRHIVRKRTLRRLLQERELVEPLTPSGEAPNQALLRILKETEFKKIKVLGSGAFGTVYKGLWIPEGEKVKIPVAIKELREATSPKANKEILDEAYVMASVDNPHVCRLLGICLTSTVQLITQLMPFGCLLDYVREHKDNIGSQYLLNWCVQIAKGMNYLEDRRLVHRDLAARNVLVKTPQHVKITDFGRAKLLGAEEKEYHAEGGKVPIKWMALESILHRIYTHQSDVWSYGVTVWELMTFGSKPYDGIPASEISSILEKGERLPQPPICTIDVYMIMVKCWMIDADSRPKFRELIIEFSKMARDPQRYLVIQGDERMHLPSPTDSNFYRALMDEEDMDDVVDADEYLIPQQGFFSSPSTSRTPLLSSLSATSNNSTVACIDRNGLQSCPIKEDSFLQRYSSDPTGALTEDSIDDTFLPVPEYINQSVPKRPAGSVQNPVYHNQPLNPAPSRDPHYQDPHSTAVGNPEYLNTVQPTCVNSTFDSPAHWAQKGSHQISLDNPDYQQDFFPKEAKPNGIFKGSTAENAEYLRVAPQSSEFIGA

[4] = target: EGFR Δ746-750/T790M/C797S mutant (Homo sapiens (Human), UniProt P00533, C797S/DEL746-750/T790M); experiment: HotSpot radiometric kinase assay, EGFR Δ746-750/T790M/C797S; conditions: radiometric filter-binding, 10 μM ATP
Sequence of EGFR Δ746-750/T790M/C797S mutant (P00533 other isoform, or with tags, fused parts or gaps T790M/C797S/del 1-668/del 746-750 limits assumed): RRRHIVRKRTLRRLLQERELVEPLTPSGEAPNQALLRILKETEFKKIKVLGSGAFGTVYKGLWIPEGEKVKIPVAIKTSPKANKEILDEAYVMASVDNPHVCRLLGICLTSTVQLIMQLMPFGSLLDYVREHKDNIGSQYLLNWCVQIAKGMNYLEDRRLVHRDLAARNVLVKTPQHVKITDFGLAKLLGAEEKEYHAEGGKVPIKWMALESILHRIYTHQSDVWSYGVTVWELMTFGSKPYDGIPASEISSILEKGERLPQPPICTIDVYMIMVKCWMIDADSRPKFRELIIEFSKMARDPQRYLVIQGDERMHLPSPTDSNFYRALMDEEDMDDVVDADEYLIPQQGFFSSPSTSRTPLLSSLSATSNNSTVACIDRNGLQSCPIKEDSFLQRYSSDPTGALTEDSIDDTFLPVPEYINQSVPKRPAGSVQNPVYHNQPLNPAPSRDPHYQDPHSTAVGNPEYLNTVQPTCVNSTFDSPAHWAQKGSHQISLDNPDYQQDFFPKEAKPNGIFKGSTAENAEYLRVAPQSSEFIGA
Procedure: as §1, §2

Sequence of EGFR Δ746-750/T790M mutant (P00533 other isoform, or with tags, fused parts or gaps T790M/del 1-668/del 746-750 limits assumed): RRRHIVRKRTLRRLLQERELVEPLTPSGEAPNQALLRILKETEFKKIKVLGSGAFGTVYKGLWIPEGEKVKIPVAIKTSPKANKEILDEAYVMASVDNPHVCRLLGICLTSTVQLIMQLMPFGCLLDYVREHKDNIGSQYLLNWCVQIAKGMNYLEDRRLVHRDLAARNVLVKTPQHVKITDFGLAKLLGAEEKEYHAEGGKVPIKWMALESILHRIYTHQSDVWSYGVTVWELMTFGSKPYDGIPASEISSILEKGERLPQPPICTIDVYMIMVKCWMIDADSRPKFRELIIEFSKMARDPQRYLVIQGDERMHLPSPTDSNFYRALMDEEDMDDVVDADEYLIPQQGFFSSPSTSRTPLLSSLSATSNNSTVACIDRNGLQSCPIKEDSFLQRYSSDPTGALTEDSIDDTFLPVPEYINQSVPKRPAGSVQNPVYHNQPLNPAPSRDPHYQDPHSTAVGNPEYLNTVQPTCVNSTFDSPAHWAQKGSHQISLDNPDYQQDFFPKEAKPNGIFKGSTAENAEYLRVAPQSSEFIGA

SMILES	pIC50 [1]	pIC50 [2]	pIC50 (EGFR (Δ746-750))	pIC50 [4]	also measured
Cn1ncc2c1OCCCOc1ccccc1/C=C/c1n[nH]c3cnc-2cc13 [Cpd. 1, (11E)-1-methyl-19,20-dihydro-1H,8H,18H-10,7,4-(ethan[1]yl[1,2]diylidene)pyrazolo[3,4-f][1,5,9,12,13]benzodioxatriazacyclooctadecine]	8.68	8.32	8.17	9.66	pIC50 (EGFR L858R/T790M mutant): 8.39; pIC50 (EGFR WT): 7.33; pIC50 [3]: 7.82; pIC50 (EGFR L858R/C797S mutant): 7.26; pIC50 (EGFR L858R mutant): 7.54
Cn1ncc2c1OCCCOc1ccccc1/C=C/c1n[nH]c3ccc-2nc13 [Cpd. 2, (18E)-8-methyl-2,8,11,12-tetrahydro-10H-3,5-ethenodipyrazolo[3,4-f:4′,3′-j][1,5,9]benzodioxazacyclopentadecine]	7.64	7.79	7.31	7.53	pIC50 (EGFR L858R/T790M mutant): 6.52; pIC50 (EGFR WT): 6.26; pIC50 [3]: 6.16; pIC50 (EGFR L858R/C797S mutant): 6.23; pIC50 (EGFR L858R mutant): 6.59
Cn1ncc2c1COCCOc1ccccc1/C=C/c1n[nH]c3cnc-2nc13 [Cpd. 16, (18E)-8-methyl-8,9,11,12-tetrahydro-2H-5,3-(azenometheno)dipyrazolo[3,4-f:4′,3′-j][1,4,9]benzodioxazacyclopentadecine]	7.42	7.21	7.48	8.29	
CCc1nn(C)c2c1/C=C/c1n[nH]c3cnc(cc13)-c1cc(F)ccc1OCCN(C)C2=O [Cpd. 62, (18E)-17-ethyl-7-fluoro-13,15-dimethyl-2,12,13,15-tetrahydro-5,3-(azenometheno)dipyrazolo[3,4-f:3′,4′-j][1,4]benzoxazacyclopentadecin-14(11H)-one]	8.39	8.24	7.34	9.30	
Cn1ncc2c1COCCOc1ccccc1/C=C/c1n[nH]c3cnc-2cc13 [Cpd. 63, (11E)-1-methyl-1,18,19,21-tetrahydro-8H-10,7,4-(ethan[1]yl[1,2]diylidene)pyrazolo[3,4-f][1,4,9,12,13]benzodioxatriazacyclooctadecine]	8.55	8.11	7.83	9.70	
Cc1ccc2c(n1)/C=C/c1n[nH]c3cnc(nc13)-c1cnn(C)c1C(C)OCCO2 (stereo not drawn) [Cpd. 65, (18E)-8,9,16-trimethyl-8,9,11,12-tetrahydro-2H-5,3-(azenometheno)dipyrazolo[3,4-f:4′,3′-j]pyrido[2,3-n][1,4,9]dioxazacyclopentadecine]	7.44	7.47	6.55	8.41	
CN(C)CCNC(=O)c1ccc2c(c1)/C=C/c1n[nH]c3cnc(cc13)-c1cnn(C)c1OCCCO2 [Cpd. 71]			8.62		pIC50 (EGFR WT): 8.41; pIC50 [3]: 8.43; pIC50 (EGFR L858R mutant): 8.80
CN(C)CCNC(=O)c1ccc2c(c1)OCCOCc1c(cnn1C)-c1cc3c(n[nH]c3cn1)/C=C/2 [Cpd. 81, (11E)-N-[2-(dimethylamino)ethyl]-1-methyl-1,18,19,21-tetrahydro-8H-10,7,4-(ethan[1]yl[1,2]diylidene)pyrazolo[3,4-f][1,4,9,12,13]benzodioxatriazacyclooctadecine-15-carboxamide]			7.40		pIC50 (EGFR WT): 7.02; pIC50 [3]: 7.85; pIC50 (EGFR L858R mutant): 7.55
CCNC(=O)c1ccc2c(c1)/C=C/c1n[nH]c3cnc(cc13)-c1cnn(C)c1COCCO2 [Cpd. 89, (11E)-N-ethyl-1-methyl-1,18,19,21-tetrahydro-8H-10,7,4-(ethan[1]yl[1,2]diylidene)pyrazolo[3,4-f][1,4,9,12,13]benzodioxatriazacyclooctadecine-14-carboxamide]			7.62		
CN(C)CCNC(=O)c1ccc2c(c1)/C=C/c1n[nH]c3cnc(cc13)-c1cnn(C)c1COCCO2 [Cpd. 90, (11E)-N-[2-(dimethylamino)ethyl]-1-methyl-1,18,19,21-tetrahydro-8H-10,7,4-(ethan[1]yl[1,2]diylidene)pyrazolo[3,4-f][1,4,9,12,13]benzodioxatriazacyclooctadecine-14-carboxamide]			7.77		
CN(C)CCCNC(=O)c1ccc2c(c1)/C=C/c1n[nH]c3cnc(cc13)-c1cnn(C)c1COCCO2 [Cpd. 91, (11E)-N-[3-(dimethylamino)propyl]-1-methyl-1,18,19,21-tetrahydro-8H-10,7,4-(ethan[1]yl[1,2]diylidene)pyrazolo[3,4-f][1,4,9,12,13]benzodioxatriazacyclooctadecine-14-carboxamide]			7.71		
Cn1ncc2c1COCCOc1ccc(C(=O)O)cc1/C=C/c1n[nH]c3cnc-2cc13 [Cpd. 92, (11E)-1-methyl-1,18,19,21-tetrahydro-8H-10,7,4-(ethan[1]yl[1,2]diylidene)pyrazolo[3,4-f][1,4,9,12,13]benzodioxatriazacyclooctadecine-14-carboxylic acid]			7.33		
CN1CCC(NC(=O)c2ccc3c(c2)/C=C/c2n[nH]c4cnc(cc24)-c2cnn(C)c2COCCO3)CC1 [Cpd. 93, (11E)-1-methyl-N-(1-methylpiperidin-4-yl)-1,18,19,21-tetrahydro-8H-10,7,4-(ethan[1]yl[1,2]diylidene)pyrazolo[3,4-f][1,4,9,12,13]benzodioxatriazacyclooctadecine-14-carboxamide]			7.87		
CN1CCC(CNC(=O)c2ccc3c(c2)/C=C/c2n[nH]c4cnc(cc24)-c2cnn(C)c2COCCO3)CC1 [Cpd. 94, (11E)-1-methyl-N-[(1-methylpiperidin-4-yl)methyl]-1,18,19,21-tetrahydro-8H-10,7,4-(ethan[1]yl[1,2]diylidene)pyrazolo[3,4-f][1,4,9,12,13]benzodioxatriazacyclooctadecine-14-carboxamide]			7.75		
Cc1ccc2c(n1)/C=C/c1n[nH]c3cnc(cc13)-c1cnn(C)c1C(C)OCCO2 (stereo not drawn) [Cpd. 95, (18E)-8,9,16-trimethyl-8,9,11,12-tetrahydro-2H-5,3-(azenometheno)dipyrazolo[3′,4′:9,10;4″,3″:13,14][1,4]dioxacyclopentadecino[6,5-b]pyridine]			6.86		
CN1CCN(C(=O)c2ccc3c(c2)/C=C/c2n[nH]c4cnc(cc24)-c2cnn(C)c2COCCO3)CC1 [Cpd. 96, (4-methylpiperazin-1-yl)[(11E)-1-methyl-1,18,19,21-tetrahydro-8H-10,7,4-(ethan[1]yl[1,2]diylidene)pyrazolo[3,4-f][1,4,9,12,13]benzodioxatriazacyclooctadecin-14-yl]methanone]			6.13		
CN1CCC(NC(=O)c2ccc3c(c2)/C=C/c2n[nH]c4cnc(cc24)-c2cnn(C)c2OCCCO3)CC1 [Cpd. 97, (11E)-1-methyl-N-(1-methylpiperidin-4-yl)-19,20-dihydro-1H,8H,18H-10,7,4-(ethan[1]yl[1,2]diylidene)pyrazolo[3,4-f][1,5,9,12,13]benzodioxatriazacyclooctadecine-14-carboxamide]			8.01		
Cc1nc2cc3c(n[nH]c13)/C=C/c1cc(F)ccc1OCCCOc1c-2cnn1C [Cpd. 98, (11E)-14-fluoro-1,6-dimethyl-19,20-dihydro-1H,8H,18H-10,7,4-(ethan[1]yl[1,2]diylidene)pyrazolo[3,4-f][1,5,9,12,13]benzodioxatriazacyclooctadecine]			6.08		
CN1CCOCCN(c2ccc(F)c(Cl)c2)c2cc3c(n[nH]c3cn2)/C=C/c2cn(C)nc2C1=O [Cpd. 99, (17E)-6-(3-chloro-4-fluorophenyl)-12,15-dimethyl-2,7,8,11,12,15-hexahydro-6H-5,3-(azenometheno)dipyrazolo[3,4-f:3′,4′-j][1,4,14]oxadiazacyclohexadecin-13(10H)-one]	5.07	7.95	7.07	5.47	
Cn1ncc2c1OCCCOc1ccc(F)cc1/C=C/c1n[nH]c3cnc-2cc13 [Cpd. 100, (11E)-14-fluoro-1-methyl-19,20-dihydro-1H,8H,18H-10,7,4-(ethan[1]yl[1,2]diylidene)pyrazolo[3,4-f][1,5,9,12,13]benzodioxatriazacyclooctadecine]			7.62		
